# Earlier results in PMC6832551, “An Antiviral Peptide from Alopecosa nagpag Spider Targets NS2B–NS3 Protease of Flaviviruses” (Toxins, 2019).
# Structures can show the parent of a compound that is named as a salt.
# System: ZIKV
# Text: Despite their differences in pathogeneses, DENV and ZIKV are representative, emerging mosquito-borne flaviviruses with similar replication cycles which infect millions of people annually. The non-structural proteins of flaviviruses are important for virus replication and assembly. It has been established that NS2B–NS3 forms the viral protease and NS3 alone serves as the dsRNA helicase. Recently, the NS2B–NS3 protease became an attractive antiviral target, and many of its inhibitors have been reported as potential antivirals. Protease inhibitors are ubiquito ...
smiles,measurement,value
"CC(C)C[C@H]1C(=O)N2CCC[C@H]2[C@]2(O)O[C@](NC(=O)[C@@H]3C=C4c5cccc6[nH]c(Br)c(c56)C[C@H]4N(C)C3)(C(C)C)C(=O)N12 [bromocriptine, Bromocriptine mesylate]",ZIKV viral replication (in words),confirmed to inhibit ZIKV protease activity and viral replication
